Results published in PubChem BioAssay (NCI).
“And” between values parts separate entries of the source, which are not always exact repeats. Equal values may be shown once.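 Growth conditions: 96-well plates. Treatment: test compound, 48 hours, 5 concentrations. Analysis: linear interpolation between bracketing concentrations; unreached endpoints set to highest concentration. Here, GI50 denotes the concentration required for 50% inhibition of growth. At the TGI there is no net growth.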

Experiments:
Experiment in all cases: DTP human tumour cell line panel, 48 h
KM12 colon = system: KM12 colon
DU-145 prostate = system: DU-145 prostate
NCI/ADR-RES ovarian = system: NCI/ADR-RES ovarian
HS 578T breast = system: HS 578T breast
OVCAR-5 ovarian = system: OVCAR-5 ovarian
SF-295 CNS = system: SF-295 CNS
OVCAR-3 ovarian = system: OVCAR-3 ovarian
MDA-MB-435 = system: MDA-MB-435

Structure (SMILES)	GI50 (KM12 colon)	TGI (KM12 colon)	GI50 (DU-145 prostate)	TGI (DU-145 prostate) [µM]	GI50 (NCI/ADR-RES ovarian) [µM]	TGI (NCI/ADR-RES ovarian) [µM]	GI50 (HS 578T breast)	TGI (HS 578T breast)	GI50 (OVCAR-5 ovarian)	TGI (OVCAR-5 ovarian)	GI50 (SF-295 CNS)	TGI (SF-295 CNS) [µM]	GI50 (OVCAR-3 ovarian)	TGI (OVCAR-3 ovarian) [µM]	GI50 (MDA-MB-435)	TGI (MDA-MB-435)
O=C(CC(Cl)=C(Cl)Cl)Nc1ccccc1	> 100 µM	> 100 µM	> 100 µM	> 100	> 100	> 100	> 100 µM	> 100 µM	> 100 µM	> 100 µM						
O=Nc1ccc(O)c(=O)cc1	5.99 µM	16.3 µM	3.74 µM	10.8	2.6	10.6	5.57 µM	> 44.4 µM	5.49 µM	17.8 µM	26.1 µM	79.2	1.39 µM	5.07	3.28 µM	13.2 µM
CC(C)(C)c1ccc(S(=O)(=O)Oc2ccc3c4c(c(=O)oc3c2)CCCCC4)cc1	> 100 µM	> 100 µM	37.9 µM	> 100	13.9	> 100	15.2 µM	74.3 µM	37 µM	> 100 µM	20.9 µM	> 100	18.4 µM	> 100	34.6 µM	> 100 µM
CCCCCCCCCCCCOC1C(CNC(=O)C2OC3OC(C)(C)OC3C2NC(=O)Nc2ccc(CC(=O)OC)cc2)OC2OC(C)(C)OC21 (stereo not drawn)	> 100 µM	> 100 µM	> 77 µM	> 100	> 100	> 100	> 100 µM	> 100 µM	> 100 µM	> 100 µM	> 34.8 µM	> 49.5	> 100 µM	> 100	> 100 µM	> 100 µM
C=C1CC[C@@H]2[C@](C)(COC(C)=O)[C@H](OC(C)=O)CC[C@@]2(C)[C@@H]1CC(Nc1ccc(S(=O)(=O)NC(C)=O)cc1)C1=CCOC1=O (stereo partly drawn)	5.11 µM	15.9 µM	2.8 µM	9.74	2.51	9.14	8.45 µM	38.8 µM	4.82 µM	15.4 µM	11.5 µM	22	1.49 µM	3.02	2.79 µM	10.6 µM
O=C(Cc1ccc(/C=C/C(=O)c2ncc[nH]2)cc1)Nc1ccc(F)cc1	2.1 µM	7.91 µM	1.19 µM	4.58	7.18	> 33.3	23.3 µM	> 33.3 µM	2.6 µM	9.81 µM	4.74 µM	11.5	1.7 µM	6.01	4.07 µM	20.1 µM
COc1cc(Nc2nc3cc(N)cc(N)c3nc2-c2ccccc2)cc(OC)c1OC	10.6 µM	29.5 µM	21.9 µM	74	14.4	44.1	15 µM	78.1 µM	21.3 µM	46.7 µM	16 µM	42.8	14.2 µM	37.1	7.35 µM	24.4 µM
CC(=O)Nc1ccc2c(c1)C(c1ccccc1Cl)=Nc1c(n[nH]c1C)N2	0.253 µM	> 25 µM	> 22.8 µM	> 25	> 25	> 25	0.928 µM	> 11.7 µM	24.6 µM	> 25 µM	8.22 µM	> 25	9.06 µM	> 25	> 20 µM	> 25 µM
c1cc(NNc2cccc(-c3nn[nH]n3)c2)cc(-c2nn[nH]n2)c1		> 100 µM		> 100		> 100		> 100 µM		> 100 µM		> 100		> 100		> 100 µM
COc1ccc2c(c1OC)C[C@@H]1c3c(cc4c(c3-2)OCO4)CCN1C		> 100 µM		> 100				> 100 µM		> 100 µM		31.3		> 100		> 100 µM
O=c1c2c(=NCCN3CCCC3)cc3c(=O)n(CCCN4CCOCC4)c(=O)c4c(-c5ccc(CN6CCCC6)cc5)cc(c(O)n1CCCN1CCOCC1)c2c4-3	0.0661 µM	0.841 µM	0.103 µM	1.23	0.364	9.65	0.132 µM	0.57 µM	0.0847 µM	0.724 µM	0.164 µM	0.796	0.0244 µM	0.109	0.0395 µM	0.147 µM
COc1ccc(C2=N[C@@H](Cc3ccccc3)C(=O)Nc3ccsc32)cc1	5.62 µM	20.9 µM	4.65 µM	21.9	3.84	33	3.24 µM	28.8 µM	11.5 µM	36.4 µM			3.56 µM	9.88	1.52 µM	4 µM
Cc1cc(O)c(=O)cc2c1C[C@H]1CC(C)(C)/C=C/C[C@]3(C)Oc4cc(=O)c(O)cc(C)c4C[C@H]3C[C@H](O)[C@@]1(C)O2	< 0.01 µM	> 100 µM	< 0.01 µM	> 75.9	< 0.01		0.0339 µM	> 100 µM	0.0434 µM	> 100 µM			< 0.01 µM	19.6	< 0.017 µM	
CCN1C(=S)N(c2ccccc2)C2NC(=S)N(/N=C/C=C/c3ccccc3OC)C21 (stereo not drawn)	0.323 µM	> 64.8 µM	0.356 µM	28.5	0.307	> 100	0.359 µM	> 100 µM	0.69 µM	> 100 µM	0.263 µM	> 100	0.267 µM	0.721	0.0775 µM	0.337 µM
Cc1cc(S(=O)(=O)Nc2nc3ccccc3o2)c(SCc2ccccc2)cc1Cl	18.4 µM	43.4 µM	26.5 µM	77.9	20	40.9	29.5 µM	78.9 µM	20.3 µM	46.1 µM	19.2 µM	57	16.7 µM	42.1	19.8 µM	42.7 µM
CCOC(=O)c1cc(C(=O)c2cc(OC)c(OC)c(OC)c2)n2ncccc12	0.342 µM	> 100 µM	0.37 µM	> 100	0.237	> 42.9	0.309 µM	26.1 µM	2.72 µM	> 100 µM	0.219 µM	13.9	0.145 µM	1.84	0.0314 µM	0.117 µM
COC(=O)c1n[nH]c(C)c1N=NN(C)CCC#N		51.4 µM		51.6		36.4		52 µM				73.4		42.2		> 100 µM
CN(c1ncccc1CNc1nc(Nc2ccc3c(c2)CC(=O)N3)ncc1C(F)(F)F)S(C)(=O)=O	0.367 µM and 0.425 µM	4.52 µM and 7.35 µM	2.88 µM and 2.74 µM	> 100	13	> 85.8	1.73 µM and 2.47 µM	7.9 µM and > 10 µM	2.22 µM and 2.7 µM	60.3 µM and > 10 µM	2.2 µM and 2.55 µM	> 100	2.42 µM and 2.81 µM	> 26.9	1.46 µM and 2.74 µM	11.4 µM and > 10 µM
CC(N)C(Cc1ccc(Cl)cc1)c1ccc(Cl)cc1 (stereo not drawn)	8.48 µM	22.6 µM	12.5 µM	25.7	13.4	36.9	13.8 µM	39.7 µM	12.4 µM	27.3 µM	10.4 µM	23.6	13.8 µM	27.5	8.2 µM	20.7 µM
CCOC(=O)/C(=C/N1CCN(C(=O)c2ccco2)C1=S)C(=O)c1ccccc1	10.1 µM	> 50 µM	8.04 µM	24.1							16.4 µM	> 50	20.2 µM	> 50	14.4 µM	> 50 µM
NNC(=S)N/N=C(\C(=O)Nc1cccc(O)c1)C1C(=O)NC(=S)NC1=O		> 100 µM				> 100		> 100 µM		> 100 µM		> 100		> 100		> 100 µM
O=C1CSCc2sccc21		> 100 µM		> 100		> 100		> 100 µM		> 100 µM		> 100		> 100		
CCOC(=O)C1Cc2c(cc3c4c(cccc24)N(C(C)=O)C3)N(C)C1 (stereo not drawn)		> 100 µM		> 100				9.07 µM		> 100 µM		> 100		3.27		7.04 µM
CCOC(=O)c1ccc(NC(=O)Nc2nncs2)cc1	0.136 µM	11.8 µM	0.309 µM	4.11	0.229	10.6	0.297 µM	47.4 µM	0.78 µM	> 100 µM	0.262 µM	0.988	0.0963 µM	0.415		
O=C(Nc1ccc2[nH]nc(-c3ccncc3)c2c1)[C@@H]1CCN(CC(=O)N2CCN(c3ccc(-c4ncccn4)cc3)CC2)C1	0.431 µM	> 100 µM	7.58 µM	> 100	> 100	> 100	> 100 µM	> 100 µM			> 100 µM	> 100	> 100 µM	> 100		
